Literature values as cited in patent US10772852B2, “Compositions and methods for combination pharmacological treatments to induce a prolonged, mild decrease in core body temperature” (priority 2015, dated 2020).

Assays:
mice = conditions: Reilly et al. 2013
[1] = test system: women with ovarian cancer; conditions: on average, Kumar et al. (2013)
[2] = Boyle et al. 2013

| SMILES | effect on obesity, diabetes, and fatty liver (mice) | likelihood to survive for 5 years after diagnosis versus women not taking the drug [1] | reduction in the risk of cardiovascular events ([2]; 29 different studies) [%] | reduction in the risk of MI ([2]; nine studies) [%] | reduction in the risk of heart failure ([2]; seven studies) [%] |
| --- | --- | --- | --- | --- | --- |
| CC(C)c1ccc2oc3nc(N)c(C(=O)O)cc3c(=O)c2c1 [amlexanox] | reverse obesity, diabetes, and fatty liver in mice | – | – | – | – |
| CN(C)C(=N)N=C(N)N [metformin] | – | nearly four times more likely to survive for 5 years | 10 | 12 | 10 |
